From PubChem BioAssay AID1963962 (Molecular Pharmacology Branch, DTP, NCI, 2024)

Test system: 967376-340-R-J2-PDC multicell spheroid viability
Assay: Anticancer human tumor 967376-340-R-J2-PDC patient-derived colon adenocarcinoma cell line growth inhibition [PI3K]
Conditions: for IC50: curve of first compound; for viability, T/C: stronger effect = lower value; active = viability on the fitted dose curve at most 10% of control; inactive = the rest
Procedure, shortened: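 Viability of mixed-cell spheroids was determined after exposure to pairwise combinations, one partner being inavolisib, alpelisib, duvelisib or copanlisib. Highest tested concentration matched clinical Cmax where known and 10 microM where not, descending in half-log steps.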

[1] = second compound 0.0316 µM, first compound 0.0316 µM
[2] = second compound 0.0316 µM, first compound 0.1 µM
[3] = second compound 0.0316 µM, first compound 0.316 µM
[4] = second compound 0.0316 µM, first compound 1 µM
[5] = second compound 0.1 µM, first compound 0.0316 µM
[6] = second compound 0.1 µM, first compound 0.1 µM
[7] = second compound 0.1 µM, first compound 0.316 µM
[8] = second compound 0.1 µM, first compound 1 µM
[9] = second compound 0.316 µM, first compound 0.0316 µM
[10] = second compound 0.316 µM, first compound 0.1 µM
[11] = second compound 0.316 µM, first compound 0.316 µM
[12] = second compound 0.316 µM, first compound 1 µM
[13] = second compound 1 µM, first compound 0.0316 µM
[14] = second compound 1 µM, first compound 0.1 µM
[15] = second compound 1 µM, first compound 0.316 µM
[16] = second compound 1 µM, first compound 1 µM
[17] = second compound 3.16 µM, first compound 0.0316 µM
[18] = second compound 3.16 µM, first compound 0.1 µM
[19] = second compound 3.16 µM, first compound 0.316 µM
[20] = second compound 3.16 µM, first compound 1 µM
[21] = second compound 10 µM, first compound 0.0316 µM
[22] = second compound 10 µM, first compound 0.1 µM
[23] = second compound 10 µM, first compound 0.316 µM
[24] = second compound 10 µM, first compound 1 µM
[25] = second compound 0.0316 µM, first compound 0.00316 µM
[26] = second compound 0.0316 µM, first compound 0.01 µM
[27] = second compound 0.1 µM, first compound 0.00316 µM
[28] = second compound 0.1 µM, first compound 0.01 µM
[29] = second compound 0.316 µM, first compound 0.00316 µM
[30] = second compound 0.316 µM, first compound 0.01 µM
[31] = second compound 1 µM, first compound 0.00316 µM
[32] = second compound 1 µM, first compound 0.01 µM
[33] = second compound 3.16 µM, first compound 0.00316 µM
[34] = second compound 3.16 µM, first compound 0.01 µM
[35] = second compound 10 µM, first compound 0.00316 µM
[36] = second compound 10 µM, first compound 0.01 µM
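Note: spheroids exposed to agents for 7 days before read-out.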
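Throughout, for viability, T/C: luminescence used as surrogate of cell viability.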

CC(C)NCC(C(=O)N1CCN(c2ncnc3c2C(C)CC3O)CC1)c1ccc(Cl)cc1 (stereo unspecified) + Cc1nc(NC(=O)N2CCCC2C(N)=O)sc1-c1ccnc(C(C)(C)C(F)(F)F)c1
> 10000 nM: IC50 (second compound 0.0316 µM) | IC50 (second compound 0.1 µM) | IC50 (second compound 0.316 µM) | IC50 (second compound 1 µM) | IC50 (second compound 3.16 µM) | IC50 (second compound 10 µM)
inactive: viability, T/C [1] 118% | viability, T/C [2] 100% | viability, T/C [3] 115% | viability, T/C [4] 80.5% | viability, T/C (second compound 0.0316 µM, first compound 3.16 µM) 77.8% | viability, T/C (second compound 0.0316 µM, first compound 10 µM) 80.8% | viability, T/C [5] 96.4% | viability, T/C [6] 82.3% | viability, T/C [7] 85.1% | viability, T/C [8] 70.3% | viability, T/C (second compound 0.1 µM, first compound 3.16 µM) 68.4% | viability, T/C (second compound 0.1 µM, first compound 10 µM) 87% | viability, T/C [9] 88.6% | viability, T/C [10] 78.6% | viability, T/C [11] 65.5% | viability, T/C [12] 81.1% | viability, T/C (second compound 0.316 µM, first compound 3.16 µM) 84% | viability, T/C (second compound 0.316 µM, first compound 10 µM) 70% | viability, T/C [13] 62.3% | viability, T/C [14] 64.2% | viability, T/C [15] 73% | viability, T/C [16] 78.4% | viability, T/C (second compound 1 µM, first compound 3.16 µM) 72.3% | viability, T/C (second compound 1 µM, first compound 10 µM) 63.5% | viability, T/C [17] 67.1% | viability, T/C [18] 68% | viability, T/C [19] 56.8% | viability, T/C [20] 50.7% | viability, T/C (second compound 3.16 µM, first compound 3.16 µM) 62.4% | viability, T/C (second compound 3.16 µM, first compound 10 µM) 57.4% | viability, T/C [21] 56% | viability, T/C [22] 54.8% | viability, T/C [23] 52.4% | viability, T/C [24] 49.1% | viability, T/C (second compound 10 µM, first compound 3.16 µM) 55.6% | viability, T/C (second compound 10 µM, first compound 10 µM) 50.5%

CCN1CCN(Cc2ccc(Nc3ncc(F)c(-c4cc(F)c5nc(C)n(C(C)C)c5c4)n3)nc2)CC1 + Cc1nc(NC(=O)N2CCCC2C(N)=O)sc1-c1ccnc(C(C)(C)C(F)(F)F)c1
inactive: viability, T/C [25] 107% | viability, T/C [26] 64.6% | viability, T/C [1] 90.9% | viability, T/C [2] 77% | viability, T/C [3] 77.8% | viability, T/C [4] 64.7% | viability, T/C [27] 109% | viability, T/C [28] 72.5% | viability, T/C [5] 90.5% | viability, T/C [6] 67.4% | viability, T/C [7] 54.3% | viability, T/C [8] 58.9% | viability, T/C [29] 75.8% | viability, T/C [30] 82.1% | viability, T/C [9] 64.2% | viability, T/C [10] 58.4% | viability, T/C [11] 60.8% | viability, T/C [12] 57.4% | viability, T/C [31] 56% | viability, T/C [32] 72% | viability, T/C [13] 58.4% | viability, T/C [14] 46.1% | viability, T/C [15] 49.4% | viability, T/C [16] 32.8% | viability, T/C [33] 62.3% | viability, T/C [34] 78.5% | viability, T/C [17] 59% | viability, T/C [18] 49% | viability, T/C [19] 44.1% | viability, T/C [20] 41.5% | viability, T/C [35] 47.1% | viability, T/C [36] 49% | viability, T/C [21] 45.4% | viability, T/C [22] 37% | viability, T/C [23] 40.3% | viability, T/C [24] 27.1%
162 nM: IC50 (second compound 1 µM)
> 1000 nM: IC50 (second compound 0.0316 µM) | IC50 (second compound 0.1 µM) | IC50 (second compound 0.316 µM)
77.4 nM: IC50 (second compound 3.16 µM)
< 3.16 nM: IC50 (second compound 10 µM)

Cn1ncnc1[C@H]1c2n[nH]c(=O)c3cc(F)cc(c23)N[C@@H]1c1ccc(F)cc1 + Cc1nc(NC(=O)N2CCCC2C(N)=O)sc1-c1ccnc(C(C)(C)C(F)(F)F)c1
21.8 nM: IC50 (second compound 10 µM)
> 100 nM: IC50 (second compound 0.0316 µM) | IC50 (second compound 0.1 µM) | IC50 (second compound 0.316 µM) | IC50 (second compound 1 µM) | IC50 (second compound 3.16 µM)
inactive: viability, T/C (second compound 0.0316 µM, first compound 0.000316 µM) 85.9% | viability, T/C (second compound 0.0316 µM, first compound 0.001 µM) 84.8% | viability, T/C [25] 83% | viability, T/C [26] 79.5% | viability, T/C [1] 109% | viability, T/C [2] 86.2% | viability, T/C (second compound 0.1 µM, first compound 0.000316 µM) 104% | viability, T/C (second compound 0.1 µM, first compound 0.001 µM) 69.8% | viability, T/C [27] 77.9% | viability, T/C [28] 92.8% | viability, T/C [5] 82.6% | viability, T/C [6] 82.1% | viability, T/C (second compound 0.316 µM, first compound 0.000316 µM) 70.7% | viability, T/C (second compound 0.316 µM, first compound 0.001 µM) 69% | viability, T/C [29] 50.6% | viability, T/C [30] 76.6% | viability, T/C [9] 71.3% | viability, T/C [10] 67.8% | viability, T/C (second compound 1 µM, first compound 0.000316 µM) 58.9% | viability, T/C (second compound 1 µM, first compound 0.001 µM) 71.8% | viability, T/C [31] 71.8% | viability, T/C [32] 67% | viability, T/C [13] 55.1% | viability, T/C [14] 60.3% | viability, T/C (second compound 3.16 µM, first compound 0.000316 µM) 51% | viability, T/C (second compound 3.16 µM, first compound 0.001 µM) 65.9% | viability, T/C [33] 65.5% | viability, T/C [34] 68.9% | viability, T/C [17] 62.4% | viability, T/C [18] 56% | viability, T/C (second compound 10 µM, first compound 0.000316 µM) 48.2% | viability, T/C (second compound 10 µM, first compound 0.001 µM) 71.1% | viability, T/C [35] 51.5% | viability, T/C [36] 38.8% | viability, T/C [21] 50.8% | viability, T/C [22] 51.7%
